Measurements from PMC7426938, “Induction of mitochondria-mediated apoptosis and suppression of tumor growth in zebrafish xenograft model by cyclic dipeptides identified from Exiguobacterium acetylicum” (Scientific Reports, 2020).

What was measured:
[1] = system: Cytc (Cytochrome-c) mRNA in HT-29 cells; assay: sqRT-PCR gene expression, Cytc; assay type: cell-based, human; conditions: 200 μM, 24 h, vs untreated cells
Experimental: (§1) Total RNA was isolated from HT-29 cells using the TRIzol reagent (TaKara, Japan) following the manufacturer’s instruction. The quantity and quality of each RNA sample were analyzed with a NanoDrop-1000 (Thermo Fisher Scientific, USA), followed by conversion to cDNA using RevertAid cDNA synthesis kit (Thermo Fisher Scientific, CA, USA) using 1 μg of mRNA to synthesize cDNA. Semi-quantitative reverse transcriptase-polymerase chain (sqRT-PCR) reaction was carried out in a Veriti Thermal Cycler (Applied Biosystems, CA, USA) using 2X Taq DNA polymerase Master Mix RED (Ampliqon, Denmark, Germany) as we previously described method. All sqRT-PCRs were run for at least three times. GAPDH served as a housekeeping gene to normalize the expression levels. The expression levels were analyzed by measuring the intensity of the band from the gel using Image-J software.

[2] = system: Casp-3 (Caspase-3) mRNA in HT-29 cells; assay: sqRT-PCR gene expression, Casp-3; assay type: cell-based, human; conditions: 200 μM, 24 h, vs untreated cells
Experimental: as §1

[3] = system: zebrafish (ABiC) embryos; assay: Zebrafish embryo developmental toxicity assay; assay type: in vivo, zebrafish (Danio rerio); set-up: unit not given here
Experimental: Laboratory animal care principles were followed and experimental procedures were conducted following guidelines established by the Institutional Animal Care, and Use Committee (IACUC), and every effort was made to minimize suffering. This study was approved by the IACUC of the Kaohsiung Medical University, Kaohsiung, Taiwan (Approval No: KMU-IACUC-105213). The wild-type (ABiC strain) zebrafish (Danio rerio) were maintained at 28 °C on a 14 h/10 h light/dark cycle under standard circulating water systems and fed with hatched brine shrimp. Embryos were obtained by natural mating male fish with female fish (2:3) in a water tank and eggs were maintained in a plastic Petri dish containing ad libitum water. After 4 h incubation, embryos were randomly divided into five experimental groups (control (without treatment), sham/vehicle control (DMSO), and three treatment groups for each cyclic dipeptide. Each group had 45 embryos per test dosage. All DKPs were tested at different doses varied from 50, 100 and 200 μM, respectively. After drug treatment, embryos were maintained in an incubator at 28 °C. The survival rate and embryonic developmental changes were observed by using an inverted microscope every 24 h interval for 96 h (Nikon Eclipse TE2000-U, Tokyo, Jap).

[4] = system: CM-Dil labelled HT-29 xenograft in zebrafish embryos; assay: Zebrafish HT-29 xenograft antitumor assay; assay type: in vivo, zebrafish (Danio rerio); set-up: inhibition of tumor growth: concentration or dose not given beside the values; conditions: for inhibition of tumor growth rate: 48 hpi; for inhibition of tumor growth rate / tumor growth reduction: 200 μM; for tumor growth reduction: 72 hpi; for inhibition of tumor growth: 24 hpi
Experimental: For cell labelling, HT-29 cells were incubated with cell tracker CM-Dil (Invitrogen, Carlsbad, CA, USA) dye at a final volume was 20 µL/mL for 25 min at 37 °C. To remove the unstrained dye, cells were washed twice and re-suspended with 1X PBS, pH 7.4 to a final density of 2.1 × 10^6 cells/mL. Prior transplantation, CM-Dil labelled cells were assessed for viability using trypan blue exclusion assay. More than > 90% of viable cells were used. For xenotransplantation, 48-hours post-fertilization (hpf) wild-type ABiC embryos were anaesthetized in 0.01% tricaine methanesulfonate (Sigma-Aldrich; MS222) solution containing 0.3% phenylthiocarbamide (PTU; Sigma-Aldrich; P7629). After anesthetization, CM-Dil (a lipophilic fluorescent tracking dye) labelled HT-29 cells grafted into the yolk sac of each zebrafish embryos by using a microinjector IM-300 (Narishige, Tokyo, Japan). After injection, embryos were incubated for 1 h at 28 °C. For confirmation of the visible cell mass at the injection site, zebrafish were transferred to an incubator and maintained at 37 °C.
[…] CM-Dil labelled HT-29 xenograft zebrafish embryos were randomly selected and hosed into 4 replicate wells in 12-well cell culture plates (5 embryos/well; 20 embryos/treatment group; 20 × 4 = 80). The different doses (50, 100 and 200 μM) of all DKPs were treated with transplanted embryos. Before DKPs treatment, the initial fluorescence intensity of transplanted cancer cells was measured at 0 hour post-injection (hpi). At the end of experiment 24, 48, and 72 hpi, all embryos were selected from each well and were photographed under an inverted fluorescence microscope (Nikon Eclipse TE2000-U, Tokyo, Japan). The following acquisition parameters were employed over time: Image scaling: Low = 130; High = 2,900; Exposure Time = 100 ms and Binning = 1. The fluorescence intensity of the tumor in the embryos was measured and the percentage of tumor growth inhibition was calculated according to the following formula: Inhibitionrate(%)=Z(Negativecontrol)-Z(Treatment)/Z(Negativecontrol)×100%

## CC(C)C[C@@H]1NC(=O)[C@@H]2CCCN2C1=O [DKP-1, cyclo (L-Pro-L-Leu)]
[1]
  Cytc gene expression up-regulation: 2.32 fold
[2]
  Casp-3 gene expression up-regulation: 2.32 fold
[3]; 24 hpf, 50 μM
  Mean survival rate of zebrafish embryos: 70.88 ± 3.44
[3]; 24 hpf, 100 μM
  Mean survival rate of zebrafish embryos: 73.33 ± 5.96
[3]; 24 hpf, 200 μM
  Mean survival rate of zebrafish embryos: 75 ± 5.77
[3]; 48 hpf, 50 μM
  Mean survival rate of zebrafish embryos: 70.88 ± 5.96
[3]; 48 hpf, 100 μM
  Mean survival rate of zebrafish embryos: 71.11 ± 1.54
[3]; 48 hpf, 200 μM
  Mean survival rate of zebrafish embryos: 73.33 ± 3.32
[3]; 72 hpf, 50 μM
  Mean survival rate of zebrafish embryos: 71.11 ± 3.44
[3]; 72 hpf, 100 μM
  Mean survival rate of zebrafish embryos: 71.11 ± 5.55
[3]; 72 hpf, 200 μM
  Mean survival rate of zebrafish embryos: 68.88 ± 6.91
[3]; 96 hpf, 50 μM
  Mean survival rate of zebrafish embryos: 66.66 ± 5.96
[3]; 96 hpf, 100 μM
  Mean survival rate of zebrafish embryos: 71.11 ± 9.10
[3]; 96 hpf, 200 μM
  Mean survival rate of zebrafish embryos: 66.66 ± 5.96
[4]
  inhibition of tumor growth rate: 57%
  tumor growth reduction: 68%

## CC(C)[C@@H]1NC(=O)[C@@H]2CCCN2C1=O [DKP-2, cyclo (L-Pro-L-Val)]
[1]
  Cytc gene expression up-regulation: 1.78 fold
[2]
  Casp-3 gene expression up-regulation: 1.31 fold
[3]; 24 hpf, 50 μM
  Mean survival rate of zebrafish embryos: 77.77 ± 5.41
[3]; 24 hpf, 100 μM
  Mean survival rate of zebrafish embryos: 82.22 ± 4.41
[3]; 24 hpf, 200 μM
  Mean survival rate of zebrafish embryos: 75.55 ± 3.44
[3]; 48 hpf, 50 μM
  Mean survival rate of zebrafish embryos: 80 ± 5.96
[3]; 48 hpf, 100 μM
  Mean survival rate of zebrafish embryos: 80 ± 5.96
[3]; 48 hpf, 200 μM
  Mean survival rate of zebrafish embryos: 75.55 ± 3.44
[3]; 72 hpf, 50 μM
  Mean survival rate of zebrafish embryos: 68.88 ± 3.44
[3]; 72 hpf, 100 μM
  Mean survival rate of zebrafish embryos: 77.33 ± 3.44
[3]; 72 hpf, 200 μM
  Mean survival rate of zebrafish embryos: 71.11 ± 6.88
[3]; 96 hpf, 50 μM
  Mean survival rate of zebrafish embryos: 66.66 ± 5.96
[3]; 96 hpf, 100 μM
  Mean survival rate of zebrafish embryos: 71.11 ± 9.10
[3]; 96 hpf, 200 μM
  Mean survival rate of zebrafish embryos: 66.66 ± 5.96
[4]
  inhibition of tumor growth: > 30%
  inhibition of tumor growth rate: 58%
  tumor growth reduction: 78%

## O=C1N[C@@H](Cc2ccccc2)C(=O)N2CCC[C@@H]12 [DKP-3, cyclo (L-Pro-L-Phe)]
[1]
  Cytc gene expression up-regulation: 4.29 fold
[2]
  Casp-3 gene expression up-regulation: 1.76 fold
[3]; 24 hpf, 50 μM
  Mean survival rate of zebrafish embryos: 80 ± 5.96
[3]; 24 hpf, 100 μM
  Mean survival rate of zebrafish embryos: 80 ± 5.96
[3]; 24 hpf, 200 μM
  Mean survival rate of zebrafish embryos: 75.55 ± 4.12
[3]; 48 hpf, 50 μM
  Mean survival rate of zebrafish embryos: 80 ± 5.96
[3]; 48 hpf, 100 μM
  Mean survival rate of zebrafish embryos: 80 ± 5.96
[3]; 48 hpf, 200 μM
  Mean survival rate of zebrafish embryos: 75.55 ± 4.12
[3]; 72 hpf, 50 μM
  Mean survival rate of zebrafish embryos: 77.77 ± 9.10
[3]; 72 hpf, 100 μM
  Mean survival rate of zebrafish embryos: 80 ± 5.96
[3]; 72 hpf, 200 μM
  Mean survival rate of zebrafish embryos: 73.33 ± 5.96
[3]; 96 hpf, 50 μM
  Mean survival rate of zebrafish embryos: 68.88 ± 6.88
[3]; 96 hpf, 100 μM
  Mean survival rate of zebrafish embryos: 80 ± 5.96
[3]; 96 hpf, 200 μM
  Mean survival rate of zebrafish embryos: 69.22 ± 12
[4]
  inhibition of tumor growth: > 30%
  inhibition of tumor growth rate: 68%
  tumor growth reduction: 81%
[4]; all time intervals, different doses
  tumor growth inhibition rates compared to other peptides: highest tumor growth inhibition rates

## O=C1N[C@@H](Cc2ccc(O)cc2)C(=O)N2CCC[C@@H]12 [DKP-4, cyclo (L-Pro-L-Tyr)]
[1]
  Cytc gene expression up-regulation: 3.62 fold
[2]
  Casp-3 gene expression up-regulation: 2.73 fold
[3]; 24 hpf, 50 μM
  Mean survival rate of zebrafish embryos: 79 ± 3.96
[3]; 24 hpf, 100 μM
  Mean survival rate of zebrafish embryos: 82 ± 2.96
[3]; 24 hpf, 200 μM
  Mean survival rate of zebrafish embryos: 71.55 ± 5.12
[3]; 48 hpf, 50 μM
  Mean survival rate of zebrafish embryos: 79 ± 3.96
[3]; 48 hpf, 100 μM
  Mean survival rate of zebrafish embryos: 81 ± 2.96
[3]; 48 hpf, 200 μM
  Mean survival rate of zebrafish embryos: 70.34 ± 3.33
[3]; 72 hpf, 50 μM
  Mean survival rate of zebrafish embryos: 75.51 ± 3.32
[3]; 72 hpf, 200 μM
  Mean survival rate of zebrafish embryos: 70.54 ± 3.51
[3]; 96 hpf, 50 μM
  Mean survival rate of zebrafish embryos: 71.11 ± 2.44
[3]; 96 hpf, 100 μM
  Mean survival rate of zebrafish embryos: 79.3 ± 2.77
[3]; 96 hpf, 200 μM
  Mean survival rate of zebrafish embryos: 68.24 ± 5.89
[4]
  inhibition of tumor growth: > 30%
  inhibition of tumor growth rate: 60%
  tumor growth reduction: 74%
